Test results reported in US20120138147A1, “PHOTOELECTRIC CONVERSION ELEMENT, MANUFACTURING METHOD OF THE SAME AND ELECTRONIC EQUIPMENT” (Sony Corporation, priority 2010, published 2012).

Experiment: physchem
Excerpt: Here, Ka is the dissociation equilibrium constant of a conjugate acid in water. This additive is typically a pyridine-based additive or an additive having a heterocycle. […] However, the pyridine-based additives are not limited thereto. On the other hand, among specific examples of additives having a heterocycle are N-methylimidazole(MIm), 2,4-lutidine(24-Lu), 2,5-lutidine(25-Lu), 2,6-lutidine(26-Lu), 3,4-lutidine(34-Lu) and 3,5-lutidine(35-Lu). However, the additives having a heterocycle are not limited thereto.

Molecule	pKa (water)	pKa
COc1cccnc1 [3-MeO—Py]	4.88	–
N#Cc1ccncc1 [4-CN—Py]	1.9	–
CCc1ccncc1 [4-Et—Py, 4-ethylpyridine]	–	6.04
CNc1ccncc1 [4-MeNH—Py]	12.5	–
Nc1ccncc1 [4-NH2—Py]	9.17	–
Cc1ccncc1 [4-pic]	6.03	–
Cc1ccnc(C)c1 [24-Lu, 2,4-lutidine]	–	6.72
Cc1ccc(C)nc1 [25-Lu, 2,5-lutidine]	–	6.47
Cc1ccncc1C [34-Lu, 3,4-lutidine]	–	6.52
c1ccc2c(c1)ccc1ncccc12 [56-benzoquinoline]	5.15	–
Cn1cnc2ccccc21 [NMB]	5.6	–
c1ccc2nc3ccccc3cc2c1 [acridine]	–	5.6
c1ccc(-c2ccccn2)nc1 [bpy]	4.42	–
c1ccnnc1 [pyridazine]	–	2.1
c1ccc2ncccc2c1 [quinoline]	–	4.97
Me-pyrazole	2.1	–

Next, values leading:

pKa (water)	pKa	Molecule
3.28	–	COc1ccccn1 [2-MeO—Py]
2.84	–	Brc1cccnc1 [3-Br—Py]
3.13	–	COC(=O)c1cccnc1 [3-COOMe—Py]
6.62	6.62	COc1ccncc1 [4-MeO—py, 4-methoxypyridine]
6.77	6.77	Cc1cccc(C)n1 [26-Lu, 2,6-lutidine]
–	6.14	Cc1cncc(C)c1 [35-Lu, 3,5-lutidine]
–	7.3	Cn1ccnc1 [Mlm, N-methylimidazole]
–	5.99	CC(C)(C)c1ccncc1 [TBP, 4-tert-butylpyridine]
–	5.38	c1ccc2cnccc2c1 [isoquinoline]
–	0.6	c1cnccn1 [pyrazine]
